Data as given in PubChem BioAssay (NCI).
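Following 48 hours of exposure in 96-well plates, responses at five concentrations were used to interpolate endpoints linearly. TGI: total growth inhibition.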

Columns and labels:
Test in all cases: DTP human tumour cell line panel, 48 h
MDA-MB-231 breast = tested on: MDA-MB-231 breast
NCI-H522 lung = tested on: NCI-H522 lung
SF-295 CNS = tested on: SF-295 CNS
UACC-62 melanoma = tested on: UACC-62 melanoma
SN12C renal = tested on: SN12C renal
MDA-MB-435 = tested on: MDA-MB-435
SK-MEL-28 melanoma = tested on: SK-MEL-28 melanoma
NCI-H460 lung = tested on: NCI-H460 lung
MDA-N = tested on: MDA-N
A549 NSCLC = tested on: A549 NSCLC
IGROV1 ovarian = tested on: IGROV1 ovarian
UACC-257 melanoma = tested on: UACC-257 melanoma
MALME-3M melanoma = tested on: MALME-3M melanoma
M14 melanoma = tested on: M14 melanoma
U251 CNS = tested on: U251 CNS
HCT-116 colon = tested on: HCT-116 colon
SW-620 colon = tested on: SW-620 colon
KM12 colon = tested on: KM12 colon
LOX IMVI melanoma = tested on: LOX IMVI melanoma
HOP-62 NSCLC = tested on: HOP-62 NSCLC
HOP-92 NSCLC = tested on: HOP-92 NSCLC
MOLT-4 leukemia = tested on: MOLT-4 leukemia
SK-MEL-5 melanoma = tested on: SK-MEL-5 melanoma
COLO 205 colon = tested on: COLO 205 colon
DU-145 prostate = tested on: DU-145 prostate
OVCAR-5 ovarian = tested on: OVCAR-5 ovarian
K-562 leukemia = tested on: K-562 leukemia
SR leukemia = tested on: SR leukemia
OVCAR-4 ovarian = tested on: OVCAR-4 ovarian
TK-10 renal = tested on: TK-10 renal
A498 renal = tested on: A498 renal
ACHN renal = tested on: ACHN renal
786-0 renal = tested on: 786-0 renal
SK-MEL-2 melanoma = tested on: SK-MEL-2 melanoma
OVCAR-3 ovarian = tested on: OVCAR-3 ovarian
CAKI-1 renal = tested on: CAKI-1 renal
SF-539 CNS = tested on: SF-539 CNS
BT-549 breast = tested on: BT-549 breast
UO-31 renal = tested on: UO-31 renal
HCC-2998 colon = tested on: HCC-2998 colon
HS 578T breast = tested on: HS 578T breast
NCI-H23 lung = tested on: NCI-H23 lung
SNB-75 CNS = tested on: SNB-75 CNS
SNB-19 CNS = tested on: SNB-19 CNS
OVCAR-8 ovarian = tested on: OVCAR-8 ovarian
T-47D breast = tested on: T-47D breast
NCI-H226 lung = tested on: NCI-H226 lung
SK-OV-3 ovarian = tested on: SK-OV-3 ovarian
HL-60(TB) leukemia = tested on: HL-60(TB) leukemia
SF-268 CNS = tested on: SF-268 CNS
EKVX NSCLC = tested on: EKVX NSCLC
HCT-15 colon = tested on: HCT-15 colon
NCI/ADR-RES ovarian = tested on: NCI/ADR-RES ovarian
HT29 colon = tested on: HT29 colon
MCF7 breast = tested on: MCF7 breast
CCRF-CEM leukemia = tested on: CCRF-CEM leukemia
PC-3 prostate = tested on: PC-3 prostate
RPMI-8226 leukemia = tested on: RPMI-8226 leukemia

Measured: TGI

CCCNc1[nH]c(C(=O)c2ccccc2)c(N)c1C(=S)Nc1ccccc1
not listed: RPMI-8226 leukemia
> 100 µM: all other assays above

CC1(O)CCC(C(C)(C)O)CC1 (centres undefined)
not listed: MALME-3M melanoma
> 100 µM: all other assays above

Cc1ccc(Cc2nc(=S)[nH][nH]2)cc1
96.5 µM: OVCAR-4 ovarian
97.9 µM: HL-60(TB) leukemia
not listed: NCI-H522 lung | SF-268 CNS | RPMI-8226 leukemia
> 100 µM: all other assays above
